In US20250195521A1 (Revolution Medicines, Inc., priority 2020, published 2025):

Tests used:
[1] = system: NCI-H358 cells (K-Ras G12C); assay: CellTiter-Glo cell viability, NCI-H358; assay type: cell-based, human; details: Homo sapiens, NCI-H358, 120 h, K-Ras G12C, 5-day treatment; read-out: H358 Cell Viability IC50
Procedure: Note—The following protocol describes a procedure for monitoring cell viability of K-Ras mutant cancer cell lines in response to a compound of the invention. Other RAS isoforms may be employed, though the number of cells to be seeded will vary based on cell line used.
Test compounds (132.5 nl) were directly dispensed into the assay plates containing cells. […] On day 5, assay plates and their contents were equilibrated to room temperature for approximately 30 minutes. […] Luminescence was measured using the PerkinElmer Enspire. Data were normalized by the following: (Sample signal/Avg. DMSO)*100. The data were fit using a four-parameter logistic fit.

[2] = system: Capan-1 cells (K-Ras G12V); assay: CellTiter-Glo cell viability, Capan-1; assay type: cell-based, human; details: Homo sapiens, CAPAN-1, 120 h, K-Ras G12V, 5-day treatment; read-out: Capan-1 Cell Viability IC50
In short: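 Compounds dispensed directly onto seeded cells; on day 5 plates equilibrated ~30 min to room temperature and luminescence read. Signal normalized to DMSO average (%) and fitted by four-parameter logistic.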

KRAS G12C = KRAS G12C (Homo sapiens (Human), UniProt P01116+P62937, G12C); assay: Ras-Raf disruption/FRET/MOA assay (BRAF RBD, Cyclophilin A); assay type: biochemical; details: read-out: KRAS G12C FRET IC50
In short: (§1)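 First, 25 μM Cyclophilin A, 12.5 nM His6-Ras-GMPPNP and 50 nM GST-BRAF RBD are mixed with diluted compound at pH 7.3. Next, 3 h at 25° C. Then 10 nM anti-His Eu-W1024 plus 50 nM anti-GST allophycocyanin for 1.5 h before TR-FRET reading.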

KRAS G12D = KRAS G12D (Homo sapiens (Human), UniProt P01116+P62937, G12D); assay: as above; assay type: biochemical; details: read-out: KRAS G12D FRET IC50
In short: as §1

KRAS G12S = KRAS G12S (Homo sapiens (Human), UniProt P01116+P62937, G12S); assay: as above; assay type: biochemical; details: read-out: KRAS G12S FRET IC50
In short: as §1

KRAS G12V = KRAS G12V (Homo sapiens (Human), UniProt P01116+P62937, G12V); assay: as above; assay type: biochemical; details: read-out: KRAS G12V FRET IC50
In short: as §1

KRAS G13C = KRAS G13C (Homo sapiens (Human), UniProt P01116+P62937, G13C); assay: as above; assay type: biochemical; details: read-out: KRAS G13C FRET IC50
In short: as §1

KRAS G13D = KRAS G13D (Homo sapiens (Human), UniProt P01116+P62937, G13D); assay: as above; assay type: biochemical; details: read-out: KRAS G13D FRET data IC50
In short: as §1

KRAS WT = KRAS WT (Homo sapiens (Human), UniProt P01116+P62937); assay: as above; assay type: biochemical; details: read-out: KRAS WT FRET data IC50
In short: as §1

NRAS G12C = NRAS G12C (Homo sapiens (Human), UniProt P01111+P62937, G12C); assay: as above; assay type: biochemical; details: read-out: NRAS G12C FRET data IC50
In short: as §1

Chain of KRAS G12C (P01116-2 other isoform, or with tags, fused parts or gaps G12C): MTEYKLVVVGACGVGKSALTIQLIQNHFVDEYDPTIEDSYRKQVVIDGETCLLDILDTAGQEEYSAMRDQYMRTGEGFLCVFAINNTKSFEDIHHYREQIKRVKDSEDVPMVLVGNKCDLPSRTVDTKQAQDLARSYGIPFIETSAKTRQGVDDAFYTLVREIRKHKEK
Chain of KRAS G12C (P62937 whole entry): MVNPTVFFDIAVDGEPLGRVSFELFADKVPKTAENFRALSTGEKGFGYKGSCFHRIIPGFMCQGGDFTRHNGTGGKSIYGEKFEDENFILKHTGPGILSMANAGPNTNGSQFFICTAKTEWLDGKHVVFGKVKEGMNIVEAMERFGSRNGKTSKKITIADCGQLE
Chain of NRAS G12C (P01111 whole entry G12C): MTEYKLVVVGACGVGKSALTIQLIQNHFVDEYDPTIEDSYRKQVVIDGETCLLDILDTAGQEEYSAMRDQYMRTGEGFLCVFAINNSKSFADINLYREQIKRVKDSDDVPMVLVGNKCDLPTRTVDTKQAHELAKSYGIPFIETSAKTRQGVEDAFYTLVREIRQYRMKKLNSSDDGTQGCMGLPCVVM
Chain of NRAS G12C (P62937 whole entry): as the sequence (P62937 whole entry) above
Chain of KRAS G13C (P01116 other isoform, or with tags, fused parts or gaps G13C): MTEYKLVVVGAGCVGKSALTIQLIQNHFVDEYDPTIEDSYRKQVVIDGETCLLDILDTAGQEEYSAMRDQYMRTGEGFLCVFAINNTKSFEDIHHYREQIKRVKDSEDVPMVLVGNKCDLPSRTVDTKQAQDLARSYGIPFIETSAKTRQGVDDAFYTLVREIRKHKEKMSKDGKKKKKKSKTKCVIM
Chain of KRAS G13C (P62937 whole entry): as the sequence (P62937 whole entry) above
Chain of KRAS G12S (P01116 other isoform, or with tags, fused parts or gaps G12S): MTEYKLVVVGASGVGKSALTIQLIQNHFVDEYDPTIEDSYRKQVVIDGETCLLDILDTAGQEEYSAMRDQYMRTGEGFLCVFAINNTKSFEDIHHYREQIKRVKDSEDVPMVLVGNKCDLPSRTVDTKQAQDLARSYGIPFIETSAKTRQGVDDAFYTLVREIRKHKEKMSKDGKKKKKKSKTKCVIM
Chain of KRAS G12S (P62937 whole entry): as the sequence (P62937 whole entry) above
Chain of KRAS G12D (P01116 other isoform, or with tags, fused parts or gaps G12D): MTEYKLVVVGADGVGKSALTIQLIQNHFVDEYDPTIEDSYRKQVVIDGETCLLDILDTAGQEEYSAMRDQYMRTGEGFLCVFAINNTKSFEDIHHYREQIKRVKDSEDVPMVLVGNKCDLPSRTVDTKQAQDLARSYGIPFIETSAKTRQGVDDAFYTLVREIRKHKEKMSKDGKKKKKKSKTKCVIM
Chain of KRAS G12D (P62937 whole entry): as the sequence (P62937 whole entry) above
Chain of KRAS WT (P01116 other isoform, or with tags, fused parts or gaps): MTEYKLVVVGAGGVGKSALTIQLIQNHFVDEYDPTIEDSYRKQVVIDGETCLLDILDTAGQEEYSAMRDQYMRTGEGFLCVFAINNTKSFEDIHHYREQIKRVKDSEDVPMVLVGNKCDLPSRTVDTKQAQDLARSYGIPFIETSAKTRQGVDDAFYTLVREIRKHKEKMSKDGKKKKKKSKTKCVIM
Chain of KRAS WT (P62937 whole entry): as the sequence (P62937 whole entry) above
Chain of KRAS G13D (P01116 other isoform, or with tags, fused parts or gaps G13D): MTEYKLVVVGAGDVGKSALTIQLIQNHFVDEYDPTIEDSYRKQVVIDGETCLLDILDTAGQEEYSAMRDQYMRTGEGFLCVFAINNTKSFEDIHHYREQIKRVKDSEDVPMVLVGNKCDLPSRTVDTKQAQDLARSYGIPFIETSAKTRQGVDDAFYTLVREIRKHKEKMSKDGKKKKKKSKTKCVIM
Chain of KRAS G13D (P62937 whole entry): as the sequence (P62937 whole entry) above
Chain of KRAS G12V (P01116 other isoform, or with tags, fused parts or gaps G12V): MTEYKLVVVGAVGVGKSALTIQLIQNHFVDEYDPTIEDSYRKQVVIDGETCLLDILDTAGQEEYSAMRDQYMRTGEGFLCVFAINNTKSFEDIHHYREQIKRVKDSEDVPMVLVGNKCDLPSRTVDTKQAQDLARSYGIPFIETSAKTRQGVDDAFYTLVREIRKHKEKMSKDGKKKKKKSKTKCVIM
Chain of KRAS G12V (P62937 whole entry): as the sequence (P62937 whole entry) above

SMILES | IC50 [1] [nM] | IC50 [2] [nM] | IC50 (KRAS G12C) [nM] | IC50 (KRAS G12D) [nM] | IC50 (KRAS G12S) [nM] | IC50 (KRAS G12V) [nM] | IC50 (KRAS G13C) [nM] | IC50 (KRAS G13D) [nM] | IC50 (KRAS WT) [nM] | IC50 (NRAS G12C) [nM]
CCn1c(-c2cccnc2[C@H](C)OC)c2c3cc(ccc31)-c1cc(O)cc(c1)C[C@H](NC(=O)[C@H](C(C)C)N(C)C(=O)C1CC1)C(=O)N1CCC[C@H](N1)C(=O)OCC(C)(C)C2 [Compound A224] | 10 to 100 | 10 to 100 | 10 to 100 | 100 to 1000 | 10 to 100 | 10 to 100 | 10 to 100 | 10 to 100 | 10 to 100 | 10 to 100
CCn1c(-c2cccnc2[C@H](C)OC)c2c3cc(ccc31)-c1cc(O)cc(c1)C[C@H](NC(=O)[C@H](C(C)C)N(C)C(=O)[C@H]1CCCO1)C(=O)N1CCC[C@H](N1)C(=O)OCC(C)(C)C2 [Compound A240] | 10 to 100 | 10 to 100 | 10 to 100 | 100 to 1000 | 100 to 1000 | 100 to 1000 | 10 to 100 | 100 to 1000 | 100 to 1000 | 10 to 100
CCn1c(-c2cccnc2[C@H](C)OC)c2c3cc(ccc31)-c1cc(O)cc(c1)C[C@H](NC(=O)[C@H](C(C)C)N(C)C(=O)[C@H]1CCCCNC1)C(=O)N1CCC[C@H](N1)C(=O)OCC(C)(C)C2 [Compound A242] | 10 to 100 | 100 to 1000 | 10 to 100 | 10 to 100 | 10 to 100 | 100 to 1000 | 10 to 100 | 10 to 100 | 10 to 100 | 10 to 100
CCn1c(-c2cccnc2[C@H](C)OC)c2c3cc(ccc31)-c1csc(n1)C[C@H](NC(=O)[C@H](C(C)C)N(C)C(=O)[C@H]1CCN(C(C)=O)C1)C(=O)N1CCC[C@H](N1)C(=O)OCC(C)(C)C2 [Compound A244] | 1000 to 10000 | 100 to 1000 | 1000 to 10000 | > 10000 | 1000 to 10000 | 1000 to 10000 | 1000 to 10000 | > 10000 | 1000 to 10000 | 1000 to 10000
CCn1c(-c2cccnc2[C@H](C)OC)c2c3cc(ccc31)-c1cc(O)cc(c1)C[C@H](NC(=O)[C@H](C(C)C)N(C)C(=O)C1Cc3nccn3C1)C(=O)N1CCC[C@H](N1)C(=O)OCC(C)(C)C2 (some centres unmarked) [Compound A249] | 10 to 100 | 100 to 1000 | 10 to 100 | 10 to 100 | 10 to 100 | 10 to 100 | 10 to 100 | 10 to 100 | 10 to 100 | 10 to 100
CCn1c(-c2cnccc2COC)c2c3cc(ccc31)-c1cc(O)cc(c1)C[C@H](NC(=O)C(C)C1CCOCC1)C(=O)N1CCC[C@H](N1)C(=O)OCC(C)(C)C2 (some centres unmarked) [Compound A258] | 1000 to 10000 | > 10000 | 1000 to 10000 | > 10000 | 1000 to 10000 | 1000 to 10000 | 100 to 1000 | 1000 to 10000 | 1000 to 10000 | 1000 to 10000
CCn1c(-c2cccnc2[C@H](C)OC)c2c3cc(ccc31)-c1csc(n1)C[C@H](NC(=O)[C@H](C(C)C)N(C)C(=O)N1CCN(C)CC13CC3)C(=O)N1CCC[C@H](N1)C(=O)OCC(C)(C)C2 [Compound A307] | 10 to 100 | 100 to 1000 | 1000 to 10000 | 1000 to 10000 | 1000 to 10000 | 1000 to 10000 | 1000 to 10000 | 1000 to 10000 | 1000 to 10000 | 1000 to 10000
CCn1c(-c2cccnc2[C@H](C)OC)c2c3cc(ccc31)-c1csc(n1)C[C@H](NC(=O)[C@H](C(C)C)N(C)C(=O)N1CC3CCC1CN3C)C(=O)N1CCC[C@H](N1)C(=O)OCC(C)(C)C2 [Compound A308] | 100 to 1000 | 100 to 1000 | 100 to 1000 | 1000 to 10000 | 1000 to 10000 | 1000 to 10000 | 1000 to 10000 | 1000 to 10000 | 100 to 1000 | 100 to 1000
